Source: patent publication US20180221319A1, “METHODS OF TREATING SEIZURE DISORDERS AND PRADER-WILLI SYNDROME” (Ovid Therapeutics Inc., priority 2017, published 2018)

Legend:
[1] = in vivo; conditions: plasma
From the text: (§1) “PK” refers to the pharmacokinetic profile. Cmax is defined as the highest plasma drug concentration estimated during an experiment (ng/ml). Tmax is defined as the time when Cmax is estimated (min). AUC0-∞ is the total area under the plasma drug concentration-time curve, from drug administration until the drug is eliminated (ng·hr/ml or g*hr/ml). The area under the curve is governed by clearance. Clearance is defined as the volume of blood or plasma that is totally cleared of its content of drug per unit time (ml/min).

[2] = plasma pharmacokinetics (elimination half-life, Cmax, AUC versus dose); conditions: dose range of 5 mg-500 mg
From the text: as §1

N[C@H]1C[C@@H](C(=O)O)CC1=C(F)F
half-life [1]: 4 to 6 h | AUCs dose proportionality [2]: greater than proportional increase | Cmax dose proportionality [2]: increases in a dose proportional manner
